Measured values: the supplement of paper PMC10307832

How the values were obtained:
[1] = compound: C1=CC2=NC=CN=C2C=C1/C=C/3\C(=O)NC(=O)S3; test: relative viability (nuclei count vs DMSO), 5 days (fraction); higher = more cells survive
Procedure, shortened: (§1)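 Vehicle-anchored 1536-well plates of lung cancer cell lines, held overnight at 37 °C, were pinned with five library-drug doses (not always all listed) spaced by √10. No medium change followed over the next 5 days, after which the cells were fixed, permeabilised and Hoechst-stained together and imaged at 4×. Nuclei were counted with MetaXpress, and viability is treated-well nuclei over vehicle-well nuclei, taken as a median across plates. Plates passed with control CV below 25% and at least one doubling.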

BGJ398 = compound: CCN1CCN(c2ccc(Nc3cc(N(C)C(=O)Nc4c(Cl)c(OC)cc(OC)c4Cl)ncn3)cc2)CC1 [BGJ398]; test: as above
Procedure, shortened: as §1

Cell Line | relative viability ([1]; 0.02 µM) | relative viability ([1]; 0.06325 µM) | relative viability ([1]; 0.2 µM) | relative viability ([1]; 0.6325 µM) | relative viability ([1]; 2 µM) | relative viability (BGJ398; 0.01 µM) | relative viability (BGJ398; 0.03162 µM) | relative viability (BGJ398; 0.1 µM) | relative viability (BGJ398; 0.3162 µM) | relative viability (BGJ398; 1 µM)
201T | 0.823 | 1.05 | 1.03 | 0.954 | 0.818 | 1.18 | 0.93 | 0.96 | 0.95 | 0.845
A549 | 0.98 | 0.999 | 1.05 | 0.902 | 0.697 | 0.932 | 0.917 | 1.03 | 0.876 | 0.996
A-427 | 0.963 | 1.14 | 1.08 | 0.918 | 0.975 | 0.985 | 0.979 | 0.967 | 0.815 | 0.753
ABC-1 | 0.977 | 0.987 | 0.893 | 0.931 | 0.526 | 0.891 | 0.988 | 0.902 | 0.816 | 0.927
BEN | 0.922 | 0.922 | 1.03 | 0.961 | 0.839 | 0.891 | 0.964 | 0.947 | 0.845 | 0.809
CAL-12T | 0.962 | 0.953 | 1.08 | 0.971 | 0.951 | 0.947 | 1.02 | 0.935 | 0.929 | 0.942
COR-L23 | 0.967 | 1.15 | 1.02 | 0.938 | 0.976 | 0.96 | 1.06 | 1.12 | 1.02 | 1.09
COR-L 105 | 0.904 | 1.05 | 1.01 | 0.912 | 0.741 | 0.875 | 0.744 | 0.961 | 0.83 | 0.875
Calu-6 | 0.971 | 1.04 | 1.03 | 0.989 | 1 | 0.986 | 0.988 | 1.05 | 1.02 | 1.02
ChaGo-K-1 | 0.972 | 0.991 | 1.09 | 0.919 | 0.891 | 1.06 | 0.987 | 1.03 | 1.03 | 1.02
EBC-1 | 0.913 | 1.04 | 0.957 | 1.05 | 1.01 | 0.975 | 0.981 | 1.09 | 1.03 | 1.14
EKVX | 0.927 | 0.885 | 0.987 | 0.936 | 0.786 | 0.865 | 0.942 | 1.08 | 0.871 | 0.986
EMC-BAC-2 | 0.951 | 1.1 | 1.1 | 0.944 | 0.554 | 1.17 | 1.15 | 0.964 | 0.945 | 0.942
EPLC-272H | 0.939 | 0.902 | 0.98 | 0.799 | 0.733 | 0.898 | 0.899 | 0.911 | 0.785 | 0.778
H3255 | 0.984 | 1.02 | 1.01 | 0.934 | 0.946 | 0.945 |  | 1 | 0.843 | 0.999
HARA | 0.84 | 0.992 | 0.945 | 0.778 | 0.955 | 1.02 | 0.788 | 0.821 | 0.719 | 0.602
HCC-15 | 1 | 0.921 | 0.972 | 0.921 | 0.818 | 1.01 | 1.01 | 1.07 | 1.13 | 0.887

Cell Line | relative viability ([1]; 0.02 µM) | relative viability ([1]; 0.06325 µM) | relative viability ([1]; 0.2 µM) | relative viability ([1]; 0.6325 µM) | relative viability ([1]; 2 µM) | relative viability (BGJ398; 0.01 µM) | relative viability (BGJ398; 0.03162 µM) | relative viability (BGJ398; 0.1 µM) | relative viability (BGJ398; 0.3162 µM) | relative viability (BGJ398; 1 µM)
HCC-44 | 0.895 | 1.03 | 0.991 | 0.965 | 0.745 | 0.998 | 0.986 | 0.987 | 0.993 | 0.826
HCC-78 | 0.9 | 0.845 | 1.04 | 0.979 | 0.507 | 0.881 | 0.911 | 0.933 | 1.02 | 0.86
HCC-366 | 0.979 | 0.787 | 1.01 | 0.942 | 0.985 | 1.01 | 1.01 | 1.07 | 1.08 | 0.974
HCC-827 | 0.989 | 0.984 | 1.02 | 1.04 | 1.05 | 0.932 |  | 1.01 | 0.962 | 1.04
HOP-62 | 0.929 | 0.945 | 1.06 | 1 | 0.943 | 0.983 | 1.07 | 1.07 | 0.982 | 1.02
IA-LM | 0.943 | 1.09 | 0.926 | 0.997 | 0.99 | 0.918 | 1.05 | 0.974 | 0.875 | 0.901
LC-2-ad | 0.973 | 0.987 | 1.11 | 0.917 | 0.758 | 0.977 | 1.03 | 0.977 | 0.994 | 0.906
LCLC-97TM1 | 0.822 | 1.02 | 1.03 | 0.906 | 0.214 | 0.778 | 1.09 | 1.02 | 0.962 | 0.97
LCLC-103H | 0.957 | 1.05 | 0.969 | 0.918 | 0.852 | 0.984 | 0.903 | 1.06 | 0.792 | 0.79
LK-2 | 1.02 | 1.06 | 1.14 | 0.896 | 0.566 | 0.867 | 0.776 | 0.638 | 0.399 | 0.263
LOU-NH91 | 0.997 | 0.988 | 1.01 | 0.978 | 0.805 | 0.935 | 0.883 | 0.971 | 0.771 | 0.931
LU99A | 1.07 | 1.11 | 0.979 | 0.871 | 0.518 | 0.884 | 0.95 | 0.89 | 0.908 | 0.792
LXF-289 | 0.996 | 0.95 | 0.956 | 0.97 | 1.01 | 0.949 | 0.948 | 0.944 | 0.875 | 0.942
NCI-H23 | 1.01 | 1.21 | 1.1 | 0.876 | 0.753 | 0.994 | 0.974 | 0.966 | 0.937 | 0.979
NCI-H322M | 0.935 | 0.969 | 0.995 | 0.916 | 0.739 | 1.07 | 0.754 | 0.948 | 0.815 | 1.02
NCI-H358 | 1.08 | 0.959 | 0.955 | 0.887 | 0.425 | 0.843 | 0.942 | 1.1 | 0.882 | 1.3
NCI-H441 | 0.863 | 0.875 | 0.885 | 1.2 | 0.736 | 0.807 | 0.977 | 1.16 | 1.05 | 1.01
